# US20220062173A1, “LIQUID COMPOSITIONS” (JOHNSON & JOHNSON CONSUMER INC., priority 2019, published 2022)
# “Also recorded” adds a separate entry of the source.
# Key:
# [1] = system: throat; assay: Additional cooling evaluation, targeted throat cooling; format: in vivo; settings: Yes/No
# Source text: (§1) Cooling sensate samples were requested from various flavor suppliers and were included into the formulation at a level recommended by the manufacturer and evaluated by various individuals in terms of cooling efficiency/intensity, area within the oral cavity where cooling could be felt, cooling onset time, and duration of cooling. It was interesting to see that all the sensate provided different degree of cooling and the area within the oral cavity where cooling could be felt was different.
# [2] = system: oral cavity; assay: Taste-test evaluation of cooling sensates in base cough-cold liquid; format: in vivo; settings: for Cooling site: area within the oral cavity where cooling could be felt; for Cooling Intensity: sensate in base cough-cold liquid at the listed addition level
# Protocol: Various polymeric additives were combined into a base cough-cold liquid formula to determine interaction, and included various grades of Avicel®, CMC, HPMC among others. A synergistic effect was observed when Poloxamer was also included in the formulation containing above mentioned rheology modifier and a cooling flavor. A cooling sensation in the back of the throat could be felt, and the sensation lasted longer (approximately 5-10 min or even longer in some instances). […] The presence of just the viscosity modifiers and no Poloxamer, the same flavor did provide targeted cooling, but the extent and duration was less.
# as §1
# Mixing Procedure: The following procedure was used to mix the materials in Table 3. The formulation was prepared by adding purified water to a suitable vessel. The Avicel RC591 was then added while mixing using a high shear mixer until dissolved, followed by addition of propylene glycol while mixing using a propeller mixer at about 500-1000 RPM. The rest of the ingredients were added and mixed at approximately 50-100 RPM for at least 30 minutes. After complete dissolution, the solution was heated using a water bath to a temperature between […] for 15 minutes while continuously stirring. The solution was cooled to room temperature before adding propylene glycol while mixing. The rest of the ingredients were added and mixed for at least 30 minutes.
# [3] = solvents named; cited from earlier work
# [4] = Solution conductivity measurement; format: physicochemical
# Protocol: Conductivity of solutions containing Poloxamer-188 and Cooler #2 in purified water at different concentrations was measured using a MultiLab 4010-2 conductivity meter with an IDS 4320 Conductivity and Temperature Sensor.
# It is important to note that the solutions turned cloudy once Cooler #2 was added to the solution, indicating formation of an emulsion. The turbidity of the solutions was not very different as the level of Cooler #2 was increased.
# Conductivity of the Water-PG solutions containing 0.35% CMC and 0.35% HPMC was also measured in water and in combination with Cooler #2 and Poloxamer. The conductivity results are summarized below in Table 5.
smiles,measurement,setting,value
"COc1ccc(NC(=O)[C@@H]2C[C@H](C)CC[C@H]2C(C)C)cc1 [WS 12, (1R,2S,5R)-N-(4-methoxyphenyl)-5-methyl-2-(1-methylethyl) cyclohexanecarboxamide]",Targeted Throat Cooling,[1],No
same,Duration,[2]; Table 3,5 to 7 min
same,Overall,[2]; Table 3,Mild cooling
same,Onset time,"[2]; Table 3, values in min",60 to 120 s
same,Cooling site,[2],mostly tongue and some in upper throat
same,Overall,[2]; overall taste evaluation,Mild cooling noticeable on tongue and some back of the throat
same,Cooling Intensity,[2],Mild Cooling
"CC(C)[C@@H]1CC[C@@H](C)C[C@H]1OC(=O)CCCC(=O)O (stereo in doubt) [Cooler #2, Monomenthyl Glutarate]",Targeted Throat Cooling,[1],Yes
same,Solubility,[3],"Ethanol and Propylene Glycol, insoluble in Water"
same,Synergistic sensate effect,[2],"Did work, providing synergistic sensate effect"
same,Cooling site,[2],all the cooling was in the back of the throat
same,Cooling site,[2]; listed as IFF cooler #2,Throat
same,Duration,[2]; duration of cooling,7 to 9 min
same,Overall,[2]; overall taste evaluation,"Cooling concentrated towards the back of the throat, intensity grows with time and duration longer than others"
same,Cooling Intensity,[2],Mild to medium cooling
same,Onset time,[2]; values in secs,~30 s
same,Conductivity,"[4]; 0.05% of Cooler #2, 0.4% Poloxamer, Water-5% propylene glycol, about 7.4 without cooler",about 35 μS/cm
same,Effect on conductivity of the solution,"[4]; purified water, Poloxamer-188 0.2% to 2.0%, 0.15% of Cooler #2",significant effect on the conductivity of the solution at lower concentrations of Poloxamer-188
"CCOC(=O)CNC(=O)[C@@H]1C[C@H](C)CC[C@H]1C(C)C [WS-5, N-[(ethoxycarbonyl)methyl)-p-menthane-3-carboxamide]",Targeted Throat Cooling,[1],Yes
same,Solubility,[3],"Propylene Glycol, ethanol, insoluble in water"
same,Synergistic sensate effect,[2],"Did work, providing synergistic sensate effect"
same,Duration,[2]; Table 3,6 to 7 min
same,Overall,[2]; Table 3,Intense cooling
same,Onset time,"[2]; Table 3, values in secs",~10 s
same,Cooling site,[2],"cooling in mouth, tongue along with some cooling in the back of the throat"
same,Cooling site,[2]; listed as Symcool WS-5,"towards the back on mouth, upper throat, and tongue"
same,Duration,[2]; duration of cooling,6 to 7 min
same,Overall,[2]; overall taste evaluation,"Intense cooling noticeable all around the oral cavity, tongue, and upper throat"
same,Cooling Intensity,[2],Intense Cooling
same,Onset time,[2]; values in secs,~10 s
"CCNC(=O)[C@@H]1C[C@H](C)CC[C@H]1C(C)C [WS-3, N-ethyl 2-isopropyl-5-methylcyclohexanecarboxamide]",Targeted Throat Cooling,[1],Yes
same,Solubility,[3],"Propylene Glycol, ethanol, insoluble in water"
same,Synergistic sensate effect,[2],"Did work, providing synergistic sensate effect"
same,Duration,[2]; Table 3,4 to 5 min
same,Overall,[2]; Table 3,Intense
same,Onset time,"[2]; Table 3, values in secs",~10 s
same,Cooling site,[2],"cooling in mouth, tongue along with some cooling in the back of the throat"
same,Cooling site,[2]; listed as Symcool®WS-3,"towards the back on mouth, upper throat, and tongue"
same,Overall,[2]; overall taste evaluation,"Intense cooling noticeable all around, tongue, and upper throat, sweeter sensation like menthol"
same,Cooling Intensity,[2],"Intense Cooling, more intense than WS-5"
same,Onset time,[2]; values in secs,~10 s
"CNC(=O)C(C)(C(C)C)C(C)C [WS 23, 2-isopropyl-N,2,3-trimethylbutyramide]",Targeted Throat Cooling,[1],No
same,Duration,[2]; Table 3,3 to 4 min
same,Overall,[2]; Table 3,Mild cooling
same,Onset time,"[2]; Table 3, values in secs",~10 s
same,Cooling site,[2],tongue and front of the mouth
same,Overall,[2]; overall taste evaluation,"Mild cooling noticeable on tongue, and front of the mouth, tingling and nose cooling as you breath out"
same,Cooling Intensity,[2],"Mild Cooling, less than WS-3 and WS-5"
same,Onset time,[2]; values in secs,~10 s
"CC(O)C(=O)O[C@@H]1C[C@H](C)CC[C@H]1C(C)C (stereo partly shown) [Symcool NAT, Menthyl Lactate]",Targeted Throat Cooling,[1],Yes
same,Solubility,[3],"Propylene glycol, ethanol"
same,Synergistic sensate effect,[2],"Did work, providing synergistic sensate effect"
same,Duration,[2]; Table 3,5 to 6 min
same,Overall,[2]; Table 3,Medium
same,Onset time,"[2]; Table 3, values in secs",~10 s
same,Cooling site,[2],"cooling in mouth, tongue along with some cooling in the back of the throat; also recorded: Tongue and some throat cooling"
same,Onset time,[2]; in words,immediate
same,Overall,[2]; overall taste evaluation,"Liquorish taste and cooling in the mouth and towards the back of the throat, cooling in throat as you breath in, intensity grows with time"
same,Cooling Intensity,[2],medium cooling
"CC(C)[C@@H]1CC[C@@H](C)C[C@H]1O [Menthol, (1R,2S,5R)-2-isopropyl-5-methylcyclohexanol, reference compound]",Targeted Throat Cooling,[1],No
same,Duration,[2]; Table 3,5 to 6 min
same,Overall,[2]; Table 3,Cooling
same,Onset time,"[2]; Table 3, values in secs",~10 s
same,Cooling site,[2],Throat and some in oral cavity tongue and front of the mouth
same,Onset time,[2]; in words,Immediate
same,Overall,[2]; overall taste evaluation,Cooling noticeable on tongue and front of the mouth and throat
same,Cooling Intensity,[2],Intense cooling
